This passage reports IC50 results from US4552889A, “3-Mercaptomethyl-2-oxo-1-pyrrolidine acetic acids and use for hypertension” (Eli Lilly and Company, priority 1983, dated 1985).

The assay deals with T1, Angiotensin Converting Enzyme (Oryctolagus cuniculus, UniProt P12822).
T1 construct: The enzyme was isolated from rabbit lung and purified via calcium phosphate gel; from tissue; host or cells: rabbit lung
T1 sequence (P12822 34-1310): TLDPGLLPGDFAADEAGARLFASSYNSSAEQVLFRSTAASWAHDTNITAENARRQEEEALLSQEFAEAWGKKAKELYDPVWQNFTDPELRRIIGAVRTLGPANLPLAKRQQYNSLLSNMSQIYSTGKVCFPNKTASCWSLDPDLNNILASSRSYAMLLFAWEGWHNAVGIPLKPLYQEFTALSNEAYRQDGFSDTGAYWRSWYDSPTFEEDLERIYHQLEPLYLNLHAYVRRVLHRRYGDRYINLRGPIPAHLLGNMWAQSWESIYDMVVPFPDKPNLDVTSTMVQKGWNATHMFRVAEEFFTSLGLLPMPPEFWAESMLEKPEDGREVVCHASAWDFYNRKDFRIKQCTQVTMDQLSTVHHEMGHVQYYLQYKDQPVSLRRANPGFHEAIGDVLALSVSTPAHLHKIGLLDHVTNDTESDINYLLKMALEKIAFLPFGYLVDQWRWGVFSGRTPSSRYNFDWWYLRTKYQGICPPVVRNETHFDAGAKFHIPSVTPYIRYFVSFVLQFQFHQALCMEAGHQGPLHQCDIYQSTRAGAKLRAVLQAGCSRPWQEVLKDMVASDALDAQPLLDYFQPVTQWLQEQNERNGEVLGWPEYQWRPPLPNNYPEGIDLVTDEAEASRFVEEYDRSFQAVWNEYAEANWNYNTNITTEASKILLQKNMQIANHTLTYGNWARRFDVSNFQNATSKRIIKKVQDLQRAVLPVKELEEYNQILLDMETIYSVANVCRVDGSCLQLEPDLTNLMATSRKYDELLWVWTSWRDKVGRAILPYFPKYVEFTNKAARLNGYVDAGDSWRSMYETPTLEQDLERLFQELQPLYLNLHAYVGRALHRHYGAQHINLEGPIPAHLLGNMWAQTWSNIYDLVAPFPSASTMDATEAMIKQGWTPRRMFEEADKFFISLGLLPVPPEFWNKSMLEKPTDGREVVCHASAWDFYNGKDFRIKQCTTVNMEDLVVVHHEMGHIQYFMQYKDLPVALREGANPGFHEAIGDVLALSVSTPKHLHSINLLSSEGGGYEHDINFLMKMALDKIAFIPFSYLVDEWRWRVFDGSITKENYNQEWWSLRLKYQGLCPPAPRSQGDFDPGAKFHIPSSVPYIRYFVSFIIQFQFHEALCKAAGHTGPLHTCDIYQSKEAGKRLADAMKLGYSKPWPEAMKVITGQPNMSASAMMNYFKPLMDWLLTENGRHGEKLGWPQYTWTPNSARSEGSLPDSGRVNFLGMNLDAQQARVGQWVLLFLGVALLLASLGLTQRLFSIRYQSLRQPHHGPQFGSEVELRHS
In words: Inhibition of Angiotensin Converting Enzyme (fluorometric histidylleucine release from angiotensin I). The format is biochemical. To be noted: enzyme from rabbit lung; human angiotensin I substrate; pH 7.5; 30 minutes at 37° C; inhibitor range 10^-4 to 10^-9 M; read-out: Concentration giving 50% Inhibition of Conversion of Angiotensin I to Angiotensin II. The text has this:
The compounds are useful in the treatment of hypertension and congestive heart failure by virtue of their ability to inhibit angiotensin converting enzyme. […] Certain compounds of the present invention were examined as to their ability to inhibit angiotensin converting enzyme in the following test system.
ASSAY OF INHIBITORS OF ANGIOTENSIN CONVERTING ENZYME
The procedure for the assay of angiotensin I converting enzyme activity was essentially that described by Cheung and Cushman, Biochemica et Biophysica Acta, 293, 451-463 (1973). The enzyme was isolated from rabbit lung and purified via calcium phosphate gel, and DEAE-cellulose column chromatography. Human angiotensin I was employed as the substrate. The assay is dependent on the fluorometric measurement of the rate of release of the dipeptide histidylleucine from the substrate by the enzyme when the released dipeptide is reacted with o-phthalicdicarboxaldehyde. A standard curve is prepared with known quantities of histidylleucine.
Incubations were conducted at 37° C. in 13×100 mm. test tubes containing a final volume of 250 μl. The conditions of the assay employed were as follows: 100 μl. of 0.3 mM angiotensin I dissolved in saline-phosphate buffer (30 mM NaCl, 100 mM potassium phosphate, pH 7.5) and 50 μl. of saline-phosphate buffer (or test compound dissolved in the buffer) were allowed to stand at least three minutes at ambient temperature. The enzymic reaction was initiated by adding 100 μl. of enzyme solution containing 25 to 50 μg. protein/ml., determined by the Lowry method. The tubes were incubated for 30 minutes at 37° C. The reaction was terminated by adding 1.45 ml. of 300 mM NaOH followed with 100 μl. of 0.2 percent o-phthalicdicarboxaldehyde in methanol. After ten minutes, 200 μl. of 3M HCl were added. The final volume in the tubes was 2 ml. Fluorometric determinations (365 nm excitation and 500 nm emission) were made after 30 minutes but within 90 minutes after termination of the reaction.
The concentration of the inhibitors were adjusted so that a range of concentrations of 10^-4 to 10^-9 M was obtained in the reaction tubes. Inhibition was measured by the decrease in activity from that of control tubes without inhibitor. Activity was recorded as the molar concentration of inhibitor producing a 50 percent decrease in converting enzyme activity relative to the controls and is summarized in Table I.

`C[C@@H](C(=O)O)N1CCC(C)(CS)C1=O` (stereo partly drawn) [Example 1, (αS)-3-(mercaptomethyl)-α,3-dimethyl-2-oxo-1-pyrrolidineacetic acid]: the IC50 worked out at 1 µM.

With `CCC1(CS)CCN([C@@H](C)C(=O)O)C1=O` (stereo partly drawn) [Example 2, (αS)-3-ethyl-3-(mercaptomethyl)-α-methyl-2-oxo-1-pyrrolidineacetic acid], the IC50 stood at 2 µM. Under `C[C@@H](C(=O)O)N1CC[C@](CS)(Cc2ccccc2)C1=O` [Example 3, (αS,3R)-3-(mercaptomethyl)-α-methyl-2-oxo-3-benzyl-1-pyrrolidineacetic acid] stands 5 µM; under `C[C@@H](C(=O)O)N1CC[C@@](CS)(Cc2ccccc2)C1=O` [Example 4, (S,S)-3-(mercaptomethyl)-α-methyl-2-oxo-3-benzyl-1-pyrrolidine-acetic acid], greater than 100 µM.
